Experimental data published in patent publication US11021690B2, “Mutant-type uricase, PEG modified mutant-type uricase, and application thereof” (SHANGHAI INSTITUTE OF BIOLOGICAL PRODUCTS CO., LTD., priority 2015, dated 2021).

What was measured:
[1] = test system: PEG-K103C: recombinant urate oxidase (uricase, PBC, SEQ ID NO: 1) mutant K103C, PEG-modified (mPEG-MAL, approximately 20 kD); experiment: Determination of Michaelis constant of PEG-modified K103C (uric acid oxidation, UV absorbance at 290 nm); format: biochemical; settings: substrate uric acid, after PEG modification
Description: (§1) The activity of uricase was detected by UV spectrophotometry, enzymatic reaction rate was detected by measuring the decrease in absorbance at 290 nm caused by the oxidation of uric acid to allantoin. The enzyme activity unit is defined as follows: at 37° C., pH 8.5, the amount of uricase needed to catalyze the decomposition of 1 μmol of uric acid per minute is defined as 1 enzyme activity unit. The efficacy of uricase is represented as the activity unit of protein per mg (U/mg). […] Therefore, the oxidation of 1 μM uric acid in the reaction caused the reduction of absorbance by 12.04 mAu. The absorbance is derived from the linear part as the changes of the uric acid concentration. Wherein the calculation formula of enzyme activity is shown as follows: Enzyme activity (U/ml)=(ODb−ODt)*Vt*df/12.04*1.0*Vs*t
(§2) (Odb: the absorbance value in a blank control tube; Odt: the absorbance value in a detection tube; Vt: the total reaction volume, 1.28 ml; df: the dilution fold before sample addition to the system; Vs: the total volume after adding the test sample of uricase, 0.2 ml; t: the reaction time, 5 min; 12.04: the molar extinction coefficient of the substrate, uric acid under the test conditions; 1.0: optical path of cuvette, 1.0 cm) Enzyme activity (U/mg)=(U/ml)/C
(§3) (1) 1 mL of uric acid working solution was added to 2 EP tubes, respectively, marked as a reaction tube and a control tube, and subjected to the warm bath at 37° C. for 5 mins;
(§4) (2) Reaction tube: 200 μL of diluted enzyme solution was added at 37° C., and reacted for 5 min; control tube: no treatment at 37° C. and reacted for 5 min;
(§5) (3) Reaction tube: 80 μL, 20% of KOH was added to quench the reaction; control tube: after 80 μL, 20% of KOH was added to quench the reaction, 200 μL of diluted enzyme solution was added;
(4) UV absorption wavelength was determined at 290 nm. […]
(§6) By comparing Michaelis constant, the maximum enzymatic reaction rate and the catalytic constant of the mutant K103C before and after PEG modification, the effect of PEG modification on mutant uricase was evaluated.

[2] = test system: recombinant urate oxidase K103C (uricase, PBC, SEQ ID NO: 1, mutant K103C), unmodified; experiment: Determination of Michaelis constant of unmodified K103C (uric acid oxidation, UV absorbance at 290 nm); format: biochemical; settings: substrate uric acid, before PEG modification
Description: as §1, §2, §3, §4, §5
(4) UV absorption wavelength was determined at 290 nm.
as §6

O=c1[nH]c(=O)c2[nH]c(=O)[nH]c2[nH]1 [uric acid]
Km [1]: 10.8 µM
Vmax [1]: 1.823 µM/min
kcat [1]: 12.396 s⁻¹
Km [2]: 11.4 µM
Vmax [2]: 2.333 µM/min
kcat [2]: 15.864 s⁻¹
